Measured values published in patent US20020035061A1, “COMPOSITIONS AND METHODS FOR TREATING INFECTIONS USING CATIONIC PEPTIDES ALONE OR IN COMBINATION WITH ANTIBIOTICS” (priority 1996, published 2002).

Tests used:
Experiment in all cases: microbe, parasite or virus in culture
Assay type in all cases: cell-based
[1] = tested on: inherently resistant microorganisms; details: B. cepacia
[2] = tested on: microorganisms with acquired resistance
bacterial isolates = tested on: bacterial isolates
S. aureus = S. aureus SA25
[3] = tested on: vancomycin / teicoplanin resistant enterococci; details: for Vancomycin MIC + Peptide: in combination with the labelled peptide; for Peptide MIC + Vancomycin: in combination with vancomycin

KWKSFIKKLTSAAKKVLTTGLPALIS [MBI 29A3] was tested, and the “Peptide MIC + Amikacin” value [1] was 32 µg/mL, the “Peptide MIC Alone” value ([1]; Amikacin section) was greater than 128 µg/mL and the “Gentamicin MIC + Peptide” value ([2]; A. baumannii ABI002) was 4 µg/mL. The “Peptide MIC + Gentamicin” value ([2]; A. baumannii ABI002) was 1 µg/mL, the “Peptide MIC Alone” value ([2]; A. baumannii ABI002, Gentamicin section) was 2 µg/mL and the “Peptide MIC + Tobramycin” value ([2]; E. coli EC0006) was 2 µg/mL. The “Tobramycin MIC + Peptide” value ([2]; E. coli EC0006) was 2 µg/mL, the “Peptide MIC Alone” value ([2]; E. coli EC0006, Tobramycin section) was 4 µg/mL and the “Peptide MIC + Tobramycin” value ([2]; P. aeruginosa PA022) was 0.25 µg/mL. For the same sequence, the “Tobramycin MIC + Peptide” value ([2]; P. aeruginosa PA022) was 4 µg/mL, the “Peptide MIC Alone” value ([2]; P. aeruginosa PA022, Tobramycin section) was 4 µg/mL and the “Gentamicin MIC + Peptide” value ([2]; P. aeruginosa PA041) was 4 µg/mL. For the same sequence, the “Peptide MIC + Gentamicin” value ([2]; P. aeruginosa PA041) was 4 µg/mL, the “Ciprofloxacin MIC + Peptide” value ([2]; P. aeruginosa PA41) was 0.5 µg/mL and the “Peptide MIC + Ciprofloxacin” value ([2]; P. aeruginosa PA41) was 4 µg/mL. The “Peptide MIC Alone” value ([2]; P. aeruginosa PA41, Ciprofloxacin section) was 8 µg/mL, the “Peptide MIC Alone” value ([2]; P. aeruginosa PA041, Gentamicin section) was 8 µg/mL and the “Peptide MIC” value ([2]; S. aureus, combination with Mupirocin, in µg/mL) was 4. For the same sequence, the “Peptide MIC + Tobramycin” value ([2]; S. maltophilia SMA027) was 16 µg/mL, the “Tobramycin MIC + Peptide” value ([2]; S. maltophilia SMA027) was 4 µg/mL and the “Peptide MIC Alone” value ([2]; S. maltophilia SMA027, Tobramycin section) was 32 µg/mL. For the same sequence, the “Peptide MIC + Tobramycin” value ([2]; S. maltophilia SMA029) was 4 µg/mL, the “Tobramycin MIC + Peptide” value ([2]; S. maltophilia SMA029) was 4 µg/mL and the “Peptide MIC Alone” value ([2]; S. maltophilia SMA029, Tobramycin section) was 16 µg/mL. For the same sequence, the FIC ([2]; peptide + Tobramycin, E. coli EC0006) was 0.75, the “Peptide MIC Alone” value (bacterial isolates; 1. Amikacin, B. cepacia BC003) was greater than 128 µg/mL and the “Peptide MIC Alone” value (bacterial isolates; 1. Amikacin, B. cepacia BC005) was greater than 128 µg/mL. The “Peptide MIC Alone” value (bacterial isolates; 1. Amikacin, E. faecium EFM004) was 8 µg/mL, the “Peptide MIC Alone” value (bacterial isolates; 1. Amikacin, S. maltophilia SMA036) was 64 µg/mL and the “Peptide MIC Alone” value (bacterial isolates; 1. Amikacin, S. maltophilia SMA063) was 8 µg/mL. For the same sequence, the “Peptide MIC Alone” value (bacterial isolates; 1. Amikacin, S. maltophilia SMA064) was 8 µg/mL, the “Peptide MIC Alone” value (bacterial isolates; 4. Gentamicin, S. maltophilia SMA019) was 2 µg/mL and the “Peptide MIC Alone” value (bacterial isolates; 4. Gentamicin, S. maltophilia SMA021) was 2 µg/mL. For the same sequence, the “Amikacin MIC + Peptide” value (bacterial isolates; B. cepacia BC003) was 8 µg/mL, the “Peptide MIC + Amikacin” value (bacterial isolates; B. cepacia BC003) was 64 µg/mL and the “Amikacin MIC + Peptide” value (bacterial isolates; B. cepacia BC005) was 32 µg/mL. The “Peptide MIC + Amikacin” value (bacterial isolates; B. cepacia BC005) was 32 µg/mL, the “Peptide MIC + Vancomycin” value (bacterial isolates; E. faecalis EFS003) was 2 µg/mL and the “Vancomycin MIC + Peptide” value (bacterial isolates; E. faecalis EFS003) was 2 µg/mL. For the same sequence, the “Peptide MIC + Vancomycin” value (bacterial isolates; E. faecalis EFS005) was 1 µg/mL, the “Vancomycin MIC + Peptide” value (bacterial isolates; E. faecalis EFS005) was 4 µg/mL and the “Peptide MIC + Vancomycin” value (bacterial isolates; E. faecalis EFS011) was 8 µg/mL. For the same sequence, the “Vancomycin MIC + Peptide” value (bacterial isolates; E. faecalis EFS011) was 4 µg/mL, the “Peptide MIC + Vancomycin” value (bacterial isolates; E. faecalis EFS014) was 0.5 µg/mL and the “Vancomycin MIC + Peptide” value (bacterial isolates; E. faecalis EFS014) was 1 µg/mL. The “Amikacin MIC + Peptide” value (bacterial isolates; E. faecium EFM004) was 8 µg/mL, the “Peptide MIC + Amikacin” value (bacterial isolates; E. faecium EFM004) was 4 µg/mL and the “Peptide MIC + Vancomycin” value (bacterial isolates; E. faecium EFM006) was 2 µg/mL. For the same sequence, the “Vancomycin MIC + Peptide” value (bacterial isolates; E. faecium EFM006) was 4 µg/mL, the “Mupirocin MIC + Peptide” value (bacterial isolates; P. aeruginosa PA2) was 0.1 µg/mL and the “Peptide MIC + Mupirocin” value (bacterial isolates; P. aeruginosa PA2) was 16 µg/mL. The “Mupirocin MIC + Peptide” value (bacterial isolates; P. aeruginosa PA3) was 0.1 µg/mL, the “Peptide MIC + Mupirocin” value (bacterial isolates; P. aeruginosa PA3) was 8 µg/mL and the “Peptide MIC + Tobramycin” value (bacterial isolates; P. aeruginosa PA022) was 0.25 µg/mL. For the same sequence, the “Tobramycin MIC + Peptide” value (bacterial isolates; P. aeruginosa PA022) was 4 µg/mL, the “Ciprofloxacin MIC + Peptide” value (bacterial isolates; P. aeruginosa PA24) was 16 µg/mL and the “Peptide MIC + Ciprofloxacin” value (bacterial isolates; P. aeruginosa PA24) was 0.125 µg/mL. For the same sequence, the “Peptide MIC + Tobramycin” value (bacterial isolates; P. aeruginosa PA028) was 0.125 µg/mL, the “Tobramycin MIC + Peptide” value (bacterial isolates; P. aeruginosa PA028) was 16 µg/mL and the “Peptide MIC + Tobramycin” value (bacterial isolates; P. aeruginosa PA029) was 0.125 µg/mL. For the same sequence, the “Tobramycin MIC + Peptide” value (bacterial isolates; P. aeruginosa PA029) was 16 µg/mL, the “Ciprofloxacin MIC + Peptide” value (bacterial isolates; P. aeruginosa PA41) was 0.5 µg/mL and the “Peptide MIC + Ciprofloxacin” value (bacterial isolates; P. aeruginosa PA41) was 4 µg/mL. The “Ciprofloxacin MIC + Peptide” value (bacterial isolates; S. aureus SA10) was 16 µg/mL, the “Peptide MIC + Ciprofloxacin” value (bacterial isolates; S. aureus SA10) was 0.5 µg/mL and the “Ciprofloxacin MIC + Peptide” value (bacterial isolates; S. aureus SA25) was 2 µg/mL. For the same sequence, the “Peptide MIC + Ciprofloxacin” value (bacterial isolates; S. aureus SA25) was 0.125 µg/mL, the “Gentamicin MIC + Peptide” value (bacterial isolates; S. maltophilia SMA019) was 16 µg/mL and the “Peptide MIC + Gentamicin” value (bacterial isolates; S. maltophilia SMA019) was 0.125 µg/mL. For the same sequence, the “Gentamicin MIC + Peptide” value (bacterial isolates; S. maltophilia SMA021) was 16 µg/mL, the “Peptide MIC + Gentamicin” value (bacterial isolates; S. maltophilia SMA021) was 0.125 µg/mL and the “Peptide MIC + Tobramycin” value (bacterial isolates; S. maltophilia SMA029) was 4 µg/mL. The “Tobramycin MIC + Peptide” value (bacterial isolates; S. maltophilia SMA029) was 4 µg/mL, the “Peptide MIC + Tobramycin” value (bacterial isolates; S. maltophilia SMA030) was 4 µg/mL and the “Tobramycin MIC + Peptide” value (bacterial isolates; S. maltophilia SMA030) was 4 µg/mL. The “Amikacin MIC + Peptide” value (bacterial isolates; S. maltophilia SMA036) was 32 µg/mL, the “Peptide MIC + Amikacin” value (bacterial isolates; S. maltophilia SMA036) was 16 µg/mL and the “Amikacin MIC + Peptide” value (bacterial isolates; S. maltophilia SMA063) was 16 µg/mL. For the same sequence, the “Peptide MIC + Amikacin” value (bacterial isolates; S. maltophilia SMA063) was 4 µg/mL, the “Amikacin MIC + Peptide” value (bacterial isolates; S. maltophilia SMA064) was 16 µg/mL and the “Peptide MIC + Amikacin” value (bacterial isolates; S. maltophilia SMA064) was 4 µg/mL. The “Mupirocin MIC + Peptide” value (bacterial isolates; S. marcescens SBSM1) was 100 µg/mL, the “Peptide MIC + Mupirocin” value (bacterial isolates; S. marcescens SBSM1) was 16 µg/mL and the “Mupirocin MIC + Peptide” value (bacterial isolates; S. marcescens SBSM2) was 100 µg/mL. The “Peptide MIC + Mupirocin” value (bacterial isolates; S. marcescens SBSM2) was 64 µg/mL, the FIC (bacterial isolates; peptide + Amikacin, B. cepacia BC003) was 0.50 and the FIC (bacterial isolates; peptide + Amikacin, B. cepacia BC005) was 0.38. For the same sequence, the FIC (bacterial isolates; peptide + Amikacin, E. faecium EFM004) was 0.56, the FIC (bacterial isolates; peptide + Amikacin, S. maltophilia SMA036) was 0.38 and the FIC (bacterial isolates; peptide + Amikacin, S. maltophilia SMA063) was 0.56. For the same sequence, the FIC (bacterial isolates; peptide + Amikacin, S. maltophilia SMA064) was 0.56, the FIC (bacterial isolates; peptide + Ciprofloxacin, P. aeruginosa PA24) was 0.50 and the FIC (bacterial isolates; peptide + Ciprofloxacin, P. aeruginosa PA41) was 0.63. It also gave an FIC (bacterial isolates; peptide + Ciprofloxacin, S. aureus SA10) of 0.75, an FIC (bacterial isolates; peptide + Ciprofloxacin, S. aureus SA25) of 0.63 and an FIC (bacterial isolates; peptide + Mupirocin, P. aeruginosa PA2) of 0.50. It also gave an FIC (bacterial isolates; peptide + Mupirocin, P. aeruginosa PA3) of 0.50, an FIC (bacterial isolates; peptide + Mupirocin, S. marcescens SBSM1) of 0.16 and an FIC (bacterial isolates; peptide + Mupirocin, S. marcescens SBSM2) of 0.35. The FIC (bacterial isolates; peptide + Vancomycin, E. faecalis EFS003) was 0.56, the FIC (bacterial isolates; peptide + Vancomycin, E. faecalis EFS005) was 0.28 and the FIC (bacterial isolates; peptide + Vancomycin, E. faecalis EFS011) was 0.50. The FIC (bacterial isolates; peptide + Vancomycin, E. faecalis EFS014) was 0.52, the FIC (bacterial isolates; peptide + Vancomycin, E. faecium EFM006) was 0.52 and the “Ciprofloxacin MIC + Peptide” value (S. aureus) was 1 µg/mL. The “Peptide MIC + Ciprofloxacin” value (S. aureus) was 0.5 µg/mL, the “Amikacin MIC + Peptide” value ([3]; E. faecium EFM004) was 8 µg/mL and the “Peptide MIC + Amikacin” value ([3]; E. faecium EFM004) was 4 µg/mL. The “Amikacin MIC + Peptide” value ([3]; E. faecium EFM020) was 16 µg/mL, the “Peptide MIC + Amikacin” value ([3]; E. faecium EFM020) was 2 µg/mL and the “Vancomycin MIC + Peptide” value ([3]; E. faecalis EFS005) was 1 µg/mL. For the same sequence, the “Vancomycin MIC + Peptide” value ([3]; E. faecalis EFS011) was 4 µg/mL, the “Vancomycin MIC + Peptide” value ([3]; E. faecalis EFS014) was 1 µg/mL and the “Vancomycin MIC + Peptide” value ([3]; E. faecium EFM006) was 4 µg/mL. For the same sequence, the “Peptide MIC + Vancomycin” value ([3]; E. faecalis EFS005) was 4 µg/mL, the “Peptide MIC + Vancomycin” value ([3]; E. faecalis EFS011) was 8 µg/mL and the “Peptide MIC + Vancomycin” value ([3]; E. faecalis EFS014) was 0.5 µg/mL. For the same sequence, the “Peptide MIC + Vancomycin” value ([3]; E. faecium EFM006) was 2 µg/mL.
